Experiments:
Format in all cases: cell-based
Human hair follicles [1] = test: Hair follicle cell proliferation (Ki-67) and apoptosis (TUNEL) under cortisol; conditions: cortisol alone, five days, vs control
Procedure: Human hair follicles were removed from a fresh scalp/face skin biopsy of a person. After the depilation, isolated follicles were selected by microscopic observation to select only ones in anagen phase. They were randomized and placed in supplemented William's E medium (Penicillin/Streptomycin, L-glutamine (2 mM), hydrocortisone (0.027 μM), sodium selenite (10 ng/ml), transferrin (10 μg/ml) and insulin (10 μg/ml) and indicated treatment (control, cortisol at 100 μM, PVE at 50 or 150 ppm in presence or not of cortisol). To perform immunostaining, slide deparaffinization was manually conducted using successive baths of solvent. Heat-induced epitope retrieval was performed using the Dako Envision Flex solution (Agilent, Santa Clara, US). Ki-67 (dilution 1/500).Cell proliferation was studied by Ki-67 immunostainings realized on paraffin sections (mouse monoclonal anti-Ki-67, Dako™ M7240, Santa Clara, US), The apoptosis was studied by using click-iT® Plus Alexa 488 TUNEL assay (ThermoScientific™, C10617, Waltham, MA, USA) following supplier instructions. After TUNEL assay and Ki67 antibody incubation, slices were incubated one hour at room temperature with an Alexa 568 coupled secondary antibody (A11004, Thermo Fischer Scientific™, Waltham, MA, USA). Nuclei counterstain was done using Hoechst (Invitrogen, ref H3570) at 1/5000 for 5 minutes at RT. Slides were mounted in aqueous medium.

[2] = tested on: Human sensory neurons derived from hiPS cells; test: CGRP release by sensory neurons after cortisol or histamine challenge (ELISA); conditions: for CGRP release by sensory neurons: stress molecule alone at 10 μM, 30 minutes of stimulation, vs control
Procedure: Human sensory neurons are derived from hiPS cells (human induced Pluripotent Stem cells). hiPS cells are obtained by transfecting human fibroblasts cells. Cells were plated in 96 wells plates coated by a thin layer of Matrigel® (Corning; ref: 354277; batch: 9238002) in a differentiation medium (M1). Cells were incubated at 37° C. and 5% CO2 for 6 days and culture medium was changed every 2 days. After 9 days of differentiation, medium M1 was replaced by a maturation medium for human sensory neurons (M2). Cells were incubated at 37° C. and 5% CO2 for 6 days and culture medium was changed every 2 days. […] H-2700; batch: 1069755) was added. […] Culture was incubated for 24 hours at 37° C. and 5% of CO2. After 2 or 24 hours of incubation, the culture plates were stimulated by cortisol (Sigma Aldrich; ref: H0888; batch: SLB[…]) or histamine, each at 10 μM (Tocris; ref: 3545; batch: 1A/18942). After 30 minutes of stimulation, supernatants were removed and stored at -80° C. The amount of CGRP (antibodies-online; ref: abx257902; batch: E2001551F) released in supernatant after 30 minutes of stimulation were dosed by ELISA and compared to non-treated control. All values were expressed as mean +/-s.e.mean.

Human hair follicles [3] = test: Hair follicle pigmentation, Masson's Fontana staining; conditions: cortisol alone, 5 days
Procedure: (§1) Human hair follicles were removed from a fresh scalp/face skin biopsy of a person. After the depilation, isolated follicles were selected by microscopic observation to select only ones in anagen phase. They were randomized and placed in supplemented William's E medium (Penicillin/Streptomycin, L-glutamine (2 mM), hydrocortisone (0.027 μM), sodium selenite (10 ng/ml), transferrin (10 μg/ml) and insulin (10 μg/ml) and indicated treatment (control, cortisol at 100 μM, PVE at 50 or 150 ppm in presence or not of cortisol). After overnight fixation in paraformaldehyde solution (MM France, Brignais, France), samples were dehydrated and impregnated in paraffin using a dehydration automat (STP120 ThermoScientific™ Waltham, MA, USA). The Then, sections of […] were mounted on Superfrost® Gold slides before proceeding to Masson's Fontana staining. This staining is used to visualize melanin granules. Melanin is a non-lipid pigment, brown to black, present physiologically in hair, eyes, and skin.

Human hair follicles [4] = test: Hair follicle structure, HES staining; conditions: cortisol 100 μM alone, 5 days
Procedure: as §1, with “USA).” for “USA). The”, “Hematoxylin-eosin-saffron (HES)” for “Masson's Fontana”, “Hematoxylin-eosin-saffron (HES)” for “This staining is used to visualize melanin granules. Melanin”, “trichromatic coloration using nuclear, cytoplasmic” for “non-lipid pigment, brown to black, present physiologically in hair, eyes,”, “matrix colorants, usually used for the visualization of tissues.” for “skin.”

Human hair follicles [5] = test: Growth of isolated human hair follicles under cortisol (ex vivo culture, 5 days); conditions: cortisol 100 μM alone, day 1 to day 5
Procedure: Human hair follicles were removed from a fresh scalp/face skin biopsy of a person. After the depilation, isolated follicles were selected by microscopic observation to select only ones in anagen phase. They were randomized and placed in supplemented William's E medium (Penicillin/Streptomycin, L-glutamine (2 mM), hydrocortisone (0.027 μM), sodium selenite (10 ng/ml), transferrin (10 μg/ml) and insulin (10 μg/ml) and indicated treatment (control, cortisol at 100 μM, PVE at 50 or 150 ppm in presence or not of cortisol). Follicles were cultured at 37° C. under 5% CO2 and a relative humidity >95%. Medium was changed at day 1 and 3. The growth of isolated follicles was monitored for 5 days by daily photography using a stereomicroscope device (Carl Zeiss, Microscopy, France). The length of each follicle was measured using ImageJ software.

[6] = tested on: hair follicles dermal papilla cells (HFDPCs); test: HFDPC proliferation under cortisone (WST test); conditions: cortisone 200 μM alone, 60 h
Procedure: (§2) 2.3. Evaluation of the ability of PVE to counteract the glucocorticoids-induced decrease proliferation of hair follicles cells and to restore the VEGF secretion HFDP cells were maintained in Follicle Dermal Papilla Cell Growth Medium (C-26501, PromoCell, Heidelberg, Germany) at 37° C., under 5%, CO2. Cells at passage 4 were plated in 24 well plate at 2×10^4 cells/well. HFDPCs at 60% confluence was pretreated with 5, 10 or 20 ppm of PVE for 2 h, and subsequently treated with 200 μM cortisone. After incubation for 60 h, cell culture supernatant was recovered, and secreted VEGF was measured using ELISA kit. For the cell proliferation assay, the WST test was used (EZ-Cytox, DogenBio, Korea). Absorbance was measured at 450 nm wavelength using microplate spectrophotometry.

[7] = tested on: hair follicles dermal papilla cells (HFDPCs); test: VEGF secretion by HFDPC under cortisone (ELISA); conditions: cortisone 200 μM alone, 60 h
Procedure: as §2

[8] = tested on: Human sensory neurons derived from hiPS cells; test: Oxytocin release by sensory neurons after cortisol or histamine challenge (ELISA); conditions: 2 h pre-incubation
Procedure: Human sensory neurons are derived from hiPS cells (human induced Pluripotent Stem cells). hiPS cells are obtained by transfecting human fibroblasts cells. Cells were plated in 96 wells plates coated by a thin layer of Matrigel® (Corning; ref: 354277; batch: 9238002) in a differentiation medium (M1). Cells were incubated at 37° C. and 5% CO2 for 6 days and culture medium was changed every 2 days.
After 9 days of differentiation, medium M1 was replaced by a maturation medium for human sensory neurons (M2). Cells were incubated at 37° C. and 5% CO2 for 6 days and culture medium was changed every 2 days. On day 18 of culture (24 hours of pre-incubation) or day 19 of culture (2 hours of pre-incubation,) the medium was removed, and fresh medium with PVE or reference compound β-endorphin (Bachem; ref: H-2700; batch: 1069755) was added. The following conditions were done: control medium, control medium containing PVE at 50, 100 or 150 ppm, control medium containing beta-endorphin at 10 μM. Culture was incubated for 24 hours at 37° C. and 5% of CO2. After 2 or 24 hours of incubation, the culture plates were stimulated by cortisol (Sigma Aldrich; ref: H0888; batch: SLBN5690V) or histamine, each at 10 μM (Tocris; ref: 3545; batch: 1A/18942). After 30 minutes of stimulation, supernatants were removed and stored at −80° C. […]

With `C[C@]12CCC(=O)C=C1CC[C@@H]1[C@@H]2[C@@H](O)C[C@@]2(C)[C@H]1CC[C@]2(O)C(=O)CO` [cortisol] the “apoptosis of hair follicle cells (TUNEL)” value (Human hair follicles [1]) was “induces apoptosis in cells”, the “hair follicle cell proliferation (Ki-67)” value (Human hair follicles [1]) was “reduced cell proliferation” and the “CGRP release by sensory neurons” value [2] was “strong increase of CGRP release”. The “hair follicle pigmentation (melanin granules)” value (Human hair follicles [3]) was “almost all the melanin granules disappeared”, the “hair follicle structure (dermal sheath, hair matrix)” value (Human hair follicles [4]) was “dramatically altered” and the “hair follicle growth (length)” value (Human hair follicles [5]) was “strongly reduced”.
With `C[C@]12CCC(=O)C=C1CC[C@@H]1[C@@H]2C(=O)C[C@@]2(C)[C@H]1CC[C@]2(O)C(=O)CO` [cortisone] the HFDPCs proliferation [6] was “inhibits the HFDPCs proliferation” and the “VEGF secretion by HFDPC” value [7] was “reduced VEGF production”.
`NCCc1c[nH]cn1` [histamine] was tested, and the “CGRP release by sensory neurons” value [2] was “strong increase of CGRP release”.
In the case of “β-endorphin (YGGFMTSEKSQTPLVTLFKNAIIKNAYKKGE; Beta-endorphin; UniProt P01189 237-267, looked up)”, the “oxytocin release by sensory neurons” value ([8]; then cortisol 10 μM challenge) is reported as “no effect on the oxytocin release”, the “oxytocin release by sensory neurons” value ([8]; then histamine 10 μM challenge) is reported as “no effect on the oxytocin release” and the “CGRP release by sensory neurons (sensory neuron excitation)” value ([2]; 2 h or 24 h pre-incubation, PVE 50, 100 or 150 ppm, beta-endorphin 10 μM, then cortisol 10 μM, 30 minutes) is reported as “reduce the neuronal excitation at level similar to the control condition”.
